Results: patent US10654896B2, “FoxP3-binding peptides and uses thereof” (FUNDACIÓN PARA LA INVESTIGACIÓN MÉDICA APLICADA, priority 2016, dated 2020)
Where a SMILES comes first, the peptide text is derived from it. [ ]: non-standard residue; d: D form.

What was measured:
[1] = Human liver microsomal stability; assay type: in vitro ADME; conditions: for remaining at 20 min, 1 μM: read-out: % Remaining after 20 min; for remaining at 1 h, 1 μM: 60 min, read-out: % Remaining after 60 min
Protocol: (§1) The data collected were analyzed to calculate a half-life (t1/2, min) for tested peptides at a final concentration of 1 μM. Briefly, 5 μL of stock solution of tested peptide (10 mM) were diluted in 495 μL of 1:1 Methanol/Water (final concentration of 100 μM, 50% MeOH). Then, 50 μL of this intermediate solution were diluted in 450 μL of 100 mM potassium phosphate buffer to a concentration of 10 μM (working solution, 5% MeOH). The NADPH regenerating system contains β-Nicotinamide adenine dinucleotide phosphate (Sigma, Cat. # N0505), Isocitric acid (Sigma, Cat. #11252) and Isocitric dehydrogenase (Sigma, Cat. #12002) at a final concentration of 1 unit/mL at incubation.
(§2) Human liver microsomes were obtained from BD Gentest (Cat. #452117) and mouse liver microsomes from Xenotech (Cat. # M1000), to a final concentration of 0.7 mg protein/mL. A volume of 10 μL of peptide solution and 80 μL of microsome solution were added to a 96-well plate and incubated for 10 min at 37° C. The reaction was started by the addition of 10 μL of NADPH regenerating system and stopped by the addition of 300 μL of stop solution (ACN at 4° C., including 100 ng/mL Tolbutamide and 100 ng/mL of Labetalol as internal standard) at different incubation times (0, 5, 10, 20, 30 and 60 min). Concentrations of test compound were quantified by LC-MS/MS methodologies (Shimadzu LC 20-AD/API4000) using peak area ratio of analyte/internal standard and the percent loss of parent compound was calculated under each time point to determine the half-life.

[2] = Mouse liver microsomal stability; assay type: in vitro ADME; conditions: mouse liver microsomes; for remaining at 20 min, 1 μM: read-out: % Remaining after 20 min; for remaining at 1 h, 1 μM: 60 min, read-out: % Remaining after 60 min; for half-life: peptide 1 μM
Protocol: as §1, §2

human FOXP3 (FOXP3-6His) = target: T1, human FOXP3 (FOXP3-6His) (Homo sapiens, UniProt Q9BZS1); experiment: Peptide binding to FOXP3 by surface plasmon resonance (SPR); conditions: peptides 1-20 μM; ratio to p60 (SEQ ID NO: 1)
T1 construct: 6xHis (C); made in house; host or cells: E. coli BL21 (DE3)
T1 sequence (Q9BZS1 1-431): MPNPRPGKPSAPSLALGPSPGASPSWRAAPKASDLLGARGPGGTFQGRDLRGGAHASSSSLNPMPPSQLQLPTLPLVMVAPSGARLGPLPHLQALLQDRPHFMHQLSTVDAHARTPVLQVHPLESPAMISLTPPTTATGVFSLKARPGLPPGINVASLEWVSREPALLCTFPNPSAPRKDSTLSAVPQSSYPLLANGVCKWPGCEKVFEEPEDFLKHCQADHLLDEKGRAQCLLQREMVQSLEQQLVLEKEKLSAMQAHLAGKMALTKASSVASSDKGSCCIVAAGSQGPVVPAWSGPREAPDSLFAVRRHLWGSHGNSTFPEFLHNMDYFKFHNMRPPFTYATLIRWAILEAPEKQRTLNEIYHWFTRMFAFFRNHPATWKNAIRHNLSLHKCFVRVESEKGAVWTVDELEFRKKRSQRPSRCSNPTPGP
Excerpt: (§3) Plasmid pET20b FOXP3-His was generated to produce the human FOXP3 tagged with 6 histidines at the C terminus of the protein. Briefly, plasmid pDEST15-FOXP3 (provided by Dr. Casal, Madrid, Spain) was used as template to amplify FOXP3 by PCR using the primers Upper FOXP3 Ndel catatgcccaaccccaggc (SEQ ID NO: 55) and Lower FOXP3 […] (SEQ ID NO: 56). The resulting fragment was subcloned in pET20b at Ndel and NotI sites. pET45b His-Runx1 was obtained by PCR of activated human CD4 T cells obtained from healthy volunteers (after the signature of an informed consent) using the primers Upper Runx1 atgcgtatccccgtagatg (SEQ ID NO: 57) and Lower Runx1 […] (SEQ ID NO: 58) and the fragment was cloned in pcDNA3.1. Then, pET45b and pcDNA3.1-Runx1 were digested with BamHI and NotI and ligated to obtain pET45b-Runx1. Plasmids were used to transform BL21 cells (DE3; Novagen, Schwalbach, Germany) for the expression of the recombinant protein. The transformed BL21 cells were grown in LB medium at 37° C. (1 liter of final culture medium) (with ampicilin 0.1 mg/ml). Once the OD of the culture was between 0.5 and 1.0, IPTG (0.4 mM, final concentration) was added. Bacteria were then cultured overnight in agitation and centrifuged for 10 min at 8000 rpm. Cell pellet was then resuspended in 4 ml Tris-HCl 0.1 M and frozen at −80° C. Cell pellet was then thawed and incubated with lisozyme (25 KU) and a protease inhibitor cocktail for 15 min at 30° C. before cell lysis induced with a French-press. The resultant pool was then centrifuged during 20 min at 11.000 rpm). The recombinant protein was purified from the soluble fraction of French-press cell extracts by affinity chromatography (Histrap, Pharmacia) following manufacturer's instructions and using an FPLC platform (AKTA, Pharmacia). Plasmid pDEST15-FOXP3 encoding the fusion protein GST-FOXP3 (GST fused to the isoform A from human FOXP3 gene), was transformed into BL21 cells for the expression of the recombinant protein. GST-FOXP3 protein was purified from the soluble fraction of cell extracts obtained, as described above, by affinity chromatography (GSTrap; Amersham, Piscataway, N.J.) using a fast protein liquid chromatography platform (AKTA; Amersham) following manufacturer's instructions. The eluted proteins were desalted using Hitrap desalting columns (Pharmacia) and analyzed by SDS-PAGE using Coomassie blue (Bio-Safe Coomassie reagent; Bio-Rad, Hercules, Calif.) and by Western blot.
Screening of peptide binding to FOXP3 was performed by surface plasmon resonance (SPR) using ProteOn XPR36 (Bio-Rad, Hercules Calif., USA) optical biosensor. Recombinant protein FOXP3-6His was produced and purified from E. coli as disclosed in previous section and was immobilized covalently onto a GLM sensor chip (176-5012, Bio-Rad) using sulfo-NHS and EDC (Bio-Rad) coupling reagents and the manufacturer's instructions. After protein immobilization, chip surface was treated with ethanolamine to deactivate the excess of reactive esters.
Individual solutions of the peptides to be tested (1-20 μM) were injected by triplicate in running buffer (Phosphate buffered saline, 0.005% (v/v) Tween 20, pH 7.4) at a flow of 30 μl/min. The interspot signal (obtained in the chip surface not immobilized with protein) was used as reference. The results are summarized in Table 6 below as the ratio Peptide of the invention/p60.

[3] = target: T2, FOXP3/Runx1 heterodimerization (Homo sapiens, UniProt Q9BZS1); experiment: FOXP3/Runx1 heterodimerization inhibition (Alphascreen); assay type: biochemical; conditions: peptide 100 μM
T2 construct: made in house; host or cells: E. coli BL21 (DE3)
T2 sequence (Q9BZS1 1-431): T1 sequence (Q9BZS1 1-431)
Excerpt: as §3
It has been described that dimerization of FOXP3 is required for its function as a transcriptional regulator. Moreover, interaction between FOXP3 and the transcription factor Runx1, is crucially required for normal hematopoiesis including thymic T-cell development, but also for Treg suppressor activity (Reviewed in Lozano et al, Front Oncol. 2013, 3:294). Both activities are mediated by the intermediate region of Foxp3, which is the area of interaction between P60 and Foxp3. Thus, we studied the effect of P60 and their mutants on the FOXP3/Runx1 heterodimerization, as well as FOXP3/FOXP3 homodimerization by Alphascreen technology according to the manufacturer's instructions (Perkin Elmer, Benelux). AlphaScreen™ is a bead-based technology that is designed to measure the proximity of donor and acceptor beads conjugated to biomolecules of interest.
To measure Foxp3-Runx1 interactions, Foxp3-GST and […] proteins were used.
Recombinant Runx1 expressed in E. Coli with a hexa-histidine tag (obtained as disclosed in section (1) above) was captured by nickel chelate acceptor beads following manufacturer's instructions, whereas the recombinant FOXP3 expressed with a GST tag was captured by glutathione donor beads (Perkin Elmer) following manufacturer's instructions. His-tagged Runx1 (46 nM final concentration) was incubated with 100 nM GST-FOXP3 and the peptides to be tested (added at different concentrations from 1 to 100 μM) for 1 h at room temperature. […]

[4] = human liver microsomes, peptide 1 μM, read-out: t1/2

Compound	remaining at 20 min, 1 μM ([1]; human liver microsomes)	remaining at 1 h, 1 μM ([1]; human liver microsomes)	half-life [1, 4]	remaining at 20 min, 1 μM [2]	remaining at 1 h, 1 μM [2]	half-life [2]	half-life ([1]; human, microsomes)	Binding to Foxp3 Ratio binding Peptide/p60 (fold change) (human FOXP3 (FOXP3-6His))	Foxp3-Runx1 Inhibition % inhibition (100 μM) [3]
CSCC[C@@H]1NC(=O)[C@H](C)NC(=O)[C@H](Cc2ccccc2)NC(=O)[C@H](Cc2ccccc2)NC(=O)[C@@H]2CCCN2C(=O)[C@H](Cc2c[nH]c3ccccc23)NC(=O)[C@H](CCSC)NC(=O)[C@H](CCCCN)NC(=O)[C@H](CCCNC(=N)N)NC(=O)[C@H](Cc2ccccc2)NC(=O)[C@H](C)NC(=O)[C@H](CCC(N)=O)NC(=O)[C@H](Cc2ccccc2)NC(=O)[C@@H](C)NC(=O)[C@H](CCCNC(=N)N)NCCOCCNC1=O [compound 54]	55.7%	11%	18.4 min	97.3%	30.1%	30.9 min	–	–	–
CSCC[C@@H]1NC(=O)[C@H](C)NC(=O)[C@H](Cc2ccccc2)NC(=O)[C@H](Cc2ccccc2)NC(=O)[C@@H]2CCCN2C(=O)[C@H](Cc2c[nH]c3ccccc23)NC(=O)[C@H](CCSC)NC(=O)[C@H](CCCCN)NC(=O)[C@H](CCCNC(=N)N)NC(=O)[C@H](Cc2ccccc2)NC(=O)[C@H](C)NC(=O)[C@H](CCC(N)=O)NC(=O)[C@H](Cc2ccccc2)NC(=O)[C@@H](C)NC(=O)[C@H](CCCNC(=N)N)NCCNC(=O)CNC1=O [compound 53]	32.9%	2.8%	–	57%	3.7%	12.3 min	11.1 min	–	–
15 (RDAQSFRKMWPFFAM) [compound 15]	–	–	–	–	–	–	–	1.1 fold change	55.6%
CSCC[C@@H]1NC(=O)[C@H](C)NC(=O)[C@H](Cc2ccccc2)NC(=O)[C@H](Cc2ccccc2)NC(=O)[C@@H]2CCCN2C(=O)[C@H](Cc2c[nH]c3ccccc23)NC(=O)[C@H](CCSC)NC(=O)[C@H](CCCCN)NC(=O)[C@H](CCCNC(=N)N)NC(=O)[C@H](Cc2ccccc2)NC(=O)[C@H](C)NC(=O)[C@H](CCC(N)=O)NC(=O)[C@H](Cc2ccccc2)NC(=O)[C@@H](C)NC(=O)[C@H](CCCNC(=N)N)NC1=O [compound 51] (cyclo(R[dA]FQAFRKMWPFFAM))	48.7%	46.1%	61.7 min	62.7%	47.7%	63.8 min	–	–	–
